# According to patent US20100286038A1, “FORMULATION CONTAINING CYCLIN-DEPENDENT KINASE INHIBITING COMPOUND AND METHOD OF TREATING TUMORS USING THE SAME” (priority 2007, published 2010):
# Read-outs that look alike come from different tables or passages of the source.
# Columns and labels:
# Blk = Blk (Mus musculus, UniProt P16277)
# PKCβII = target: T1, PKCβII (Homo sapiens, UniProt P05771); assay: Upstate kinase Profiler counter-screening; assay type: biochemical
# T1 construct: purchased Upstate
# [1] = tested on: various human tumor cell lines; details: read-out: Mean In-Cell IC50, 24 hours exposure
# Protocol: (§1) The level of activation of apoptosis was also assessed by determining the levels of activated caspase in each cell line. […] The cells were evaluated fluorometrically for levels of activated caspase six hours post washout. Samples of each cell line were also subjected to SDS-PAGE and subsequently immunoblotted for p85 PARP caspase cleavage product.
# CDK6/cyclinD3 = target: T2, CDK6/cyclinD3 (Homo sapiens, UniProt Q00534); assay: Upstate kinase Profiler counter-screening; assay type: biochemical; details: at 1 μM
# T2 construct: purchased Upstate
# [2] = tested on: lymphocyte proliferation (BrdU incorporation)
# Protocol: The samples were collected in tubes containing heparin and shipped to a central laboratory for evaluation. Whole blood from each sample was diluted 1:5 in complete RPMI media and 200 microliter aliquots were added to wells of a 96-well plate. Samples from each time point were either stimulated with PHA (0.01 mg/ml final concentration), or not stimulated. […] Samples were stained with FITC conjugated anti-CD45 antibody. RBC's were lysed and the remaining cells were fixed, permeabilized and treated with DNase. The samples were then incubated with an anti-BrdU antibody. Washed cells were re-suspended and the CD45 and BrdU-positive and −negative populations were detected by FACS. FIGS. 10, 12A, and 12B show the percent of BrdU incorporation for samples taken for various doses.
# Fes = target: T3, Fes (Homo sapiens, UniProt P07332); assay: Upstate kinase Profiler counter-screening; assay type: biochemical
# T3 construct: purchased Upstate
# [3] = tested on: A2780 ovarian cancer cell cultures; details: 2 hours of exposure, 6 hour washout; no increase up to 5.0 micromolar
# Protocol: After the 6 hour washout period, cell extracts were prepared and evaluated by fluorometric assay for activated caspases (RFLU).
# A2780 cells [4] = details: 2 hours exposure to 0.1 mM
# Protocol: Following washout, lysates were prepared from the cells to assess the duration of the effects of exposure.
# [5] = tested on: tumor cell lines including the standard NCI panel; details: inhibition of CDK2/CDK1 in tumor cells
# MSK1 = target: T4, MSK1 (Homo sapiens, UniProt O75582); assay: Upstate kinase Profiler counter-screening; assay type: biochemical
# T4 construct: purchased Upstate
# tumor [6] = details: for Status: 4-week schedule
# Text: Each 28-day dosing cycle comprising once weekly administration for three weeks with a week off.
# AMPK = assay: Upstate kinase Profiler counter-screening; assay type: biochemical
# tumor [7] = details: various dosages, 2 hour or 8 hour IV infusion, 21-day dosing cycle
# cSRC = target: T5, cSRC (Homo sapiens, UniProt P12931); assay: Upstate kinase Profiler counter-screening; assay type: biochemical
# T5 construct: purchased Upstate
# CaMKII = assay type: biochemical
# A2780 cells [8] = details: two hours exposure, 24 hours after exposure
# Protocol: Cells were then fixed, stained with an FITC-conjugated, anti-BrdU monoclonal antibody and propidium iodide. The cells thus prepared were analyzed using 2-color flow cytometry with doublet-discrimination.
# [9] = tested on: various human tumor cell lines; details: for Caspase Activation (number of sensitive cell lines out of total tested/single exposure): two hour exposure to less than 0.1 micromolar
# Protocol: as §1
# Lyn = target: T6, Lyn (Homo sapiens, UniProt P07948); assay: Upstate kinase Profiler counter-screening; assay type: biochemical
# T6 construct: purchased Upstate
# PKCα = target: T7, PKCα (Homo sapiens, UniProt P17252); assay: Upstate kinase Profiler counter-screening; assay type: biochemical
# T7 construct: purchased Upstate
# Rsk2 = target: T8, Rsk2 (Homo sapiens, UniProt P51812); assay: Upstate kinase Profiler counter-screening; assay type: biochemical
# T8 construct: purchased Upstate
# T8 sequence (P51812 whole entry, species assumed): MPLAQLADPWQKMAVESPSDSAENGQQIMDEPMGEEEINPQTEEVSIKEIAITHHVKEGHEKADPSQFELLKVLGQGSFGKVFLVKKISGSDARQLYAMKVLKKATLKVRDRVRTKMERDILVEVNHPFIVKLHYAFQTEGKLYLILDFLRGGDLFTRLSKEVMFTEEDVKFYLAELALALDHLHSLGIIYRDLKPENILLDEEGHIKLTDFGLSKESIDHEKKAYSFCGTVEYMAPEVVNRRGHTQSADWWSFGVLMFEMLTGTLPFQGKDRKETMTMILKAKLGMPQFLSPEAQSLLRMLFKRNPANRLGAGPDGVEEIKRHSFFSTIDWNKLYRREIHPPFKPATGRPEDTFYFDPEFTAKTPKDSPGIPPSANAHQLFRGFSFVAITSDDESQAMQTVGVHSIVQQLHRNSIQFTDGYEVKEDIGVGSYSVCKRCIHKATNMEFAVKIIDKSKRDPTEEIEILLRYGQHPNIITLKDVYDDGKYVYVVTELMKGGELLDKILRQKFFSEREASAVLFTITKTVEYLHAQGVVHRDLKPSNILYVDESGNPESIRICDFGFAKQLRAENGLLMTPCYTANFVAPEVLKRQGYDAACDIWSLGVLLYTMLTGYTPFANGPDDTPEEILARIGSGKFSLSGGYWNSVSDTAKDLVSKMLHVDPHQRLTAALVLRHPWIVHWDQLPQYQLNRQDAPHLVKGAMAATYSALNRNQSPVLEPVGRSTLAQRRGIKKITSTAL
# T5 sequence (P12931 whole entry, species assumed): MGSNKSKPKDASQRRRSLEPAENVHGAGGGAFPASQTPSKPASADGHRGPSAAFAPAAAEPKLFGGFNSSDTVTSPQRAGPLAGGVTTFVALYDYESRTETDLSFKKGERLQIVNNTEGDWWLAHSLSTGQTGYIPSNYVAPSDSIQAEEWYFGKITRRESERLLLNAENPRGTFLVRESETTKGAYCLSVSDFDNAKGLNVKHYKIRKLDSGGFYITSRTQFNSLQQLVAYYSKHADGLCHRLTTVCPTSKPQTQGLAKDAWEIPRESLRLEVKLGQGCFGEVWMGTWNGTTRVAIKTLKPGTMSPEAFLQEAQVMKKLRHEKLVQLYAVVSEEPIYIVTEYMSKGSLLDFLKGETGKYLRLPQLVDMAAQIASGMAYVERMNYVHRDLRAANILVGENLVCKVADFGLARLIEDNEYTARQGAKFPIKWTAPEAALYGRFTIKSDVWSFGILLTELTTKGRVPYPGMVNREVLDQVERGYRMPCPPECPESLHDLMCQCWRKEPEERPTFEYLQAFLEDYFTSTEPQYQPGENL
# T3 sequence (P07332 whole entry, species assumed): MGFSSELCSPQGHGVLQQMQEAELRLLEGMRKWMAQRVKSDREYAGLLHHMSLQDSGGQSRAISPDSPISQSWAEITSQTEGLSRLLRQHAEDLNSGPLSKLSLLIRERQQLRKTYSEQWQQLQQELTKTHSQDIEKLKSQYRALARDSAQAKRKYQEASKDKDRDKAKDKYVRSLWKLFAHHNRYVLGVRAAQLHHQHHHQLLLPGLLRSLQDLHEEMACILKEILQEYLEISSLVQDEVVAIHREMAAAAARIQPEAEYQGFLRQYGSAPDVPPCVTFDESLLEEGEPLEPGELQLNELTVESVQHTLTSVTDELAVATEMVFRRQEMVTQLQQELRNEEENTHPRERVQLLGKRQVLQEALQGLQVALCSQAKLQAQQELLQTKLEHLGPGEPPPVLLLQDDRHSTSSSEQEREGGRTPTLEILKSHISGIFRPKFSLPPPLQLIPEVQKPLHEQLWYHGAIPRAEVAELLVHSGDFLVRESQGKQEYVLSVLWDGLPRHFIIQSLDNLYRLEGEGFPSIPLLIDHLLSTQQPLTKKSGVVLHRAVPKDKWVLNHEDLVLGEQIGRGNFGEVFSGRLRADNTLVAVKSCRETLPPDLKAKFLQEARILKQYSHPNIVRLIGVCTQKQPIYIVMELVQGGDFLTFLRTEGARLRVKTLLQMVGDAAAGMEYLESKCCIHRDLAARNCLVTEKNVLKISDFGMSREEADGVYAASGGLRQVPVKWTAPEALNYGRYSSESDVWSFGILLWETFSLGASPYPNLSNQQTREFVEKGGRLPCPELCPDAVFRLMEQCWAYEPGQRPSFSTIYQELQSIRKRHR
# Sequence of Blk (P16277 2-499 limits assumed): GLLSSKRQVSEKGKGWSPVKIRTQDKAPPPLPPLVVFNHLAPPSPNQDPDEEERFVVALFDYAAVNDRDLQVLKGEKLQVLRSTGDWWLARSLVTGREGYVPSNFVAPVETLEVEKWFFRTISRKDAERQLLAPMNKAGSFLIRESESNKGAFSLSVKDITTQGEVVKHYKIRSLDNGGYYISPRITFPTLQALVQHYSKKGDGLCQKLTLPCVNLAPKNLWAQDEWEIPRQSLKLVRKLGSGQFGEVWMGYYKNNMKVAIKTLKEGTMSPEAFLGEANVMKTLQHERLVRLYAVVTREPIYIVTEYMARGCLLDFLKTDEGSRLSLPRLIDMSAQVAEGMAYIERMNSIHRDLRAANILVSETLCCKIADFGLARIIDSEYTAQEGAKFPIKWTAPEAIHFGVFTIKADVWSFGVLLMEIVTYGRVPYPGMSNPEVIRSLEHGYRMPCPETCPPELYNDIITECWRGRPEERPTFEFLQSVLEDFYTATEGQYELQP
# T4 sequence (O75582 whole entry, species assumed): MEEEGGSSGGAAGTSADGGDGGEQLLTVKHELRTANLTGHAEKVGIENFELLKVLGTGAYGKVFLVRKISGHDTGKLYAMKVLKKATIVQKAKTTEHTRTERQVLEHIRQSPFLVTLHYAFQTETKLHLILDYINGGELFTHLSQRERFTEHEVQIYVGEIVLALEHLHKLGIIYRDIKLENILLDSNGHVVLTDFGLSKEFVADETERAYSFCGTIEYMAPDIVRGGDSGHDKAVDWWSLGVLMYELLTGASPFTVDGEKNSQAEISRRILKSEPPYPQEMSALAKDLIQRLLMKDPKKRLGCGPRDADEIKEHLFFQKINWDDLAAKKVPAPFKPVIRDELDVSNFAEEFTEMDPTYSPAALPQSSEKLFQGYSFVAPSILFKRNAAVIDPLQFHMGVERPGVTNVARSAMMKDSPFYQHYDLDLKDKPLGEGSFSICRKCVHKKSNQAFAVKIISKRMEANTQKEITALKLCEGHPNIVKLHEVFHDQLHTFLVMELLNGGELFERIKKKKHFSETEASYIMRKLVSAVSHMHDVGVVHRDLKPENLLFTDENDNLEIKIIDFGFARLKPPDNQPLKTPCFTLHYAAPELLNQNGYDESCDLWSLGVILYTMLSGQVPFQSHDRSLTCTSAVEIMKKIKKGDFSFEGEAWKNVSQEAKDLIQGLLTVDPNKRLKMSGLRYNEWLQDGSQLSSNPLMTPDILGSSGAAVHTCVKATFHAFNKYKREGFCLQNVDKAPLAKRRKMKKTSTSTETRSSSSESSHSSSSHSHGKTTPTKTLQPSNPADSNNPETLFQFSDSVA
# T6 sequence (P07948 whole entry, species assumed): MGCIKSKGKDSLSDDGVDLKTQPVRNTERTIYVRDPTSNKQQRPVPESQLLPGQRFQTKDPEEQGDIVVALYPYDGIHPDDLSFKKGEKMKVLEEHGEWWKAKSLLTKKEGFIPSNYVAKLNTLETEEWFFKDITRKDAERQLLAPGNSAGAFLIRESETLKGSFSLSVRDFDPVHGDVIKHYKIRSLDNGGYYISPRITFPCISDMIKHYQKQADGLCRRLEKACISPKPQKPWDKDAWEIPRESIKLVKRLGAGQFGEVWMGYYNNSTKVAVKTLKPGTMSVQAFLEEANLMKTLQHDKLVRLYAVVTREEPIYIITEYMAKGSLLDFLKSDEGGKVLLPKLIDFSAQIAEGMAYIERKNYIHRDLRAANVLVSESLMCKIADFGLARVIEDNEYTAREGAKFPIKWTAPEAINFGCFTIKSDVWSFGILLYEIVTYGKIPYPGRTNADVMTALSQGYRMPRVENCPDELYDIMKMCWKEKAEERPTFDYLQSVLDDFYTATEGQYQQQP
structure (smiles),measurement,setting,value
CCc1cnn2c(NCc3ccc[n+]([O-])c3)cc(N3CCCC[C@H]3CCO)nc12 [Formula II],% remaining activity,Blk; at 1 μM,69%
same,% remaining activity,Blk; at 10 μM,100%
same,% remaining activity,PKCβII; at 1 μM,110%
same,% remaining activity,PKCβII; at 10 μM,113%
same,IC50,[1]; Bladder,10 nM
same,IC50,[1]; Breast,8 nM
same,IC50,[1]; Colon,17 nM
same,IC50,[1]; Leukemia,6 nM
same,IC50,[1]; Liver,8 nM
same,IC50,[1]; Lymphoma (NHL),7 nM
same,IC50,[1]; Mantle Cell lymphoma,7 nM
same,IC50,[1]; Melanoma,9 nM
same,IC50,[1]; NSCLC,14 nM
same,IC50,[1]; Ovarian,14 nM
same,IC50,[1]; Pancreatic,15 nM
same,IC50,[1]; Prostate,12 nM
same,IC50,[1]; SCLC,6 nM
same,% remaining activity,CDK6/cyclinD3,12%
same,% BrdU incorporated at 8 hrs post-infusion,"[2]; Patient A, 1.85 mg/M2, Pre-Dose 28",65%
same,% BrdU incorporated at 8 hrs post-infusion,"[2]; Patient B, 3.7 mg/M2, Pre-Dose 10",13%
same,% BrdU incorporated at 8 hrs post-infusion,"[2]; Patient C, 7.4 mg/M2, Pre-Dose 51",11%
same,% BrdU incorporated at 8 hrs post-infusion,"[2]; Patient F, 50 mg/M2, Pre-Dose 33",1%
same,% BrdU incorporated at 8 hrs post-infusion,"[2]; Patient G, 58 mg/M2, Pre-Dose 23",0.7%
same,% BrdU incorporated at 8 hrs post-infusion,"[2]; Patient H, 41.4 mg/M2, Pre-Dose 41",45%
same,% remaining activity,Fes; at 1 μM,87%
same,% remaining activity,Fes; at 10 μM,91%
same,exposure level at which caspase activity is maximal,[3],0.05 µM
same,period of suppression of RB phosphorylation and caspase activation after the washout,A2780 cells [4],exceeding 6 hours
same,number of tumor cell lines with cell cycle arrest and apoptosis,[5],more than 100 tumor cell lines
same,% remaining activity,MSK1; at 1 μM,94%
same,% remaining activity,MSK1; at 10 μM,97%
same,Status,"tumor [6]; adenoidcystic carcinoma patient, 7.11 mg/m^2, 5 cycles",disease progression
same,Status,"tumor [6]; melanoma patient, 3.63 mg/m^2, 9 cycles",disease progression
same,Status,"tumor [6]; prostate patient, 3.63 mg/m^2, 4 cycles",disease progression
same,Status,"tumor [6]; pseudomyxoma patient, 2.59 mg/m^2, 9 cycles",off study with stable disease
same,"tumor markers (FIG. 11, incl. CA125)","tumor [6]; pseudomyxoma peritonei patient, after 6 cycles of 28 day treatment at 2.59 mg/m^2",falling tumor markers
same,responses by RECIST criteria in the population,"tumor [6]; various dosages, 2 hour IV infusion, 28-day dosing cycle",No complete or partial responses
same,% remaining activity,AMPK; at 1 μM,94%
same,% remaining activity,AMPK; at 10 μM,82%
same,body-weight loss over the course of the experiment,maximum dosage level (48 mg/kg IP daily for 10 days),about 5%
same,MTD,"once per day IP for 7 days, dose inducing 20% loss of body weight",60 mg/kg
same,responses by RECIST criteria in the population,tumor [7],no complete or partial responses
same,% remaining activity,cSRC; at 1 μM,117%
same,% remaining activity,cSRC; at 10 μM,111%
same,effect on tumor volume,"A549 NSCLC xenografts; 5 dosing schedules (20, 29, 52, 3x17, 87 mg/kg), total 260 mg/kg",regression in tumor volume and mass
same,% inhibition observed at dosage of 5 mg/kg Formula II,A549 NSCLC xenografts; first Formula II column,73%
same,% inhibition observed at dosage of 5 mg/kg Formula II,A549 NSCLC xenografts; second Formula II column,160 (regression) %
same,% remaining activity,CaMKII; at 1 μM,102%
same,% remaining activity,CaMKII; at 10 μM,91%
same,exposure completely suppressing DNA synthesis,A2780 cells [8],greater than 0.5 micromolar
same,exposure showing accumulation of subG1 (apoptotic cells),A2780 cells [8],greater than 0.5 micromolar
same,Caspase Activation (number of sensitive cell lines out of total tested/single exposure),[9]; Bladder,1 of 2
same,Caspase Activation (number of sensitive cell lines out of total tested/single exposure),[9]; Breast,6 of 7
same,Caspase Activation (number of sensitive cell lines out of total tested/single exposure),[9]; Colon,5 of 9
same,Caspase Activation (number of sensitive cell lines out of total tested/single exposure),[9]; Leukemia,5 of 6
same,Caspase Activation (number of sensitive cell lines out of total tested/single exposure),[9]; Liver,2 of 2
same,Caspase Activation (number of sensitive cell lines out of total tested/single exposure),[9]; Lymphoma (NHL),8 of 8
same,Caspase Activation (number of sensitive cell lines out of total tested/single exposure),[9]; Mantle Cell lymphoma,3 of 4
same,Caspase Activation (number of sensitive cell lines out of total tested/single exposure),[9]; Melanoma,9 of 9
same,Caspase Activation (number of sensitive cell lines out of total tested/single exposure),[9]; NSCLC,8 of 9
same,Caspase Activation (number of sensitive cell lines out of total tested/single exposure),[9]; Ovarian,5 of 7
same,Caspase Activation (number of sensitive cell lines out of total tested/single exposure),[9]; Pancreatic,11 of 15
same,Caspase Activation (number of sensitive cell lines out of total tested/single exposure),[9]; Prostate,4 of 5
same,Caspase Activation (number of sensitive cell lines out of total tested/single exposure),[9]; SCLC,2 of 6
same,share of cell lines tested with caspase activation and apoptosis detected,[9]; single exposure,over 85%
same,% remaining activity,Lyn; at 1 μM,108%
same,% remaining activity,Lyn; at 10 μM,110%
same,% remaining activity,PKCα; at 1 μM,96%
same,% remaining activity,PKCα; at 10 μM,94%
same,% remaining activity,Rsk2; at 1 μM,104%
same,% remaining activity,Rsk2; at 10 μM,76%
